The source of these data is patent publication US20190231668A1, “SKIN WHITENING COMPOSITION CONTAINING MANNOSYLERYTHRITOL LIPID” (AMOREPACIFIC CORPORATION, priority 2016, published 2019).

Each structure is given as a SMILES string.

This assay relates to B16F10 (melanoma cell) cell line. Nature of the assay: Inhibitory effect on melanin production in α-MSH-stimulated melanin pigment producing cells. The assay is classed as cell-based, mouse. To be noted: medium with α-MSH (200 nM) and 100 ppm of substance, untreated medium = 100%, α-MSH alone about 270%. The method, then: The inhibitory effect on melanin production in melanin pigment producing cells by the mannosylerythritol lipid (hereinafter referred to as MEL) was measured. As the cell line and serum, the mouse-derived B16F10 (melanoma cell) cell line purchased from ATCC and FBS (Cat No. 30-2020) were used. The DMEM (Cat No. 11995) required for cell culture and antibiotic-antifungal agent (Cat No. 15240-062) were purchased from Invitrogen company (GIBCO). The cell line was cultured under the conditions of 37° C., 10% CO2. […] Kojic acid was used as a positive control. After the fifth day, 1N NaOH was added and reacted at 60° C. for 2 hours to dissolve the melanin contained in the cells, and then measured the amount of melanin by measuring the absorbance at 405 nm. […] It was confirmed that the expression amount of melanin pigment by B16F10 cells in the medium supplemented with α-MSH and 100 ppm of kojic acid is about 110%, and thus the expression of melanin pigment was inhibited, and it was confirmed that the expression amount of melanin pigment in the medium supplemented with α-MSH and 1 ppm of MEL was about 180%, and the expression amount of melanin pigment in the medium supplemented with α-MSH and 5 ppm of MEL was about 90% and thus the expression of melanin pigment was inhibited.

As to `O=c1cc(CO)occ1O` [kojic acid], the “expression amount of melanin pigment” value is “about 110%”.
